Measured values published in patent US20230193262A1, “Nucleic acid molecules capable of modulating target gene expression and uses thereof” (KOREA ADVANCED INSTITUTE OF SCIENCE AND TECHNOLOGY, priority 2021, published 2023).

Columns and labels:
[1] = system: MCF-7 breast cancer cells; assay: Cell viability / apoptosis in MCF-7; assay type: cell-based; conditions: single siRNA, final concentration 60 nM
Experimental: The miRNA triggers were assayed for cytotoxicity and apoptosis induction, using the CCK-8 (Cell Counting Kit-8) (Dojindo, Kumamoto, Japan) according to the manufacturer's instruction. Cells were incubated in 96-well plates (5×10^3 cells/well) at 37° C. for 24 hours under a 5% CO2 atmosphere, followed by transfection. Three days after transfection, the medium was removed. A 10-fold dilution of CCK-8 solution in DMEM was added to the cells which were then incubated at 37° C. for 2 hours. After incubation, absorbance was read at 450 nm on Tecan Infinite M200 pro microplate reader (Mnnedorf, Switzerland).
An siRNA targeting bcl-2, bcl-xL, or mcl-1 was transfected into MCF-7 breast cancer cells and PANC-1 pancreatic cancer cells. By using qRT-PCR, establishment was made of a condition under which the expression of each target gene is decreased by 80% or more (transfection was performed at a concentration of 60 nM with the aid of Lipofectamine). As a negative control, a Luc (Luciferase)-targeting siRNA (siLuc) was used. Under the same condition of decreasing the expression of each target gene by 80% or more, the cells transfected with the siRNAs were measured for apoptosis, and the results are depicted in FIGS. 14a and 14b.
Linear miRNA triggers that could bind to miR-141 or let7f and target bcl-xL or mcl-1 were prepared and transfected alone or in combination into the breast cancer cell line MCF-7 which was then measured for cell viability. Every nucleotide of the triggers and controls was chemically modified with 2′-OMe.
First, MCF-7 was measured for cell viability after treatment with siMCL-1, siBCL-xL, and siBCL-2 (FIG. 48). […] The final concentration of the siRNAs was 60 nM.
Next, examination was made of the apoptosis when two or more genes were regulated together. MCF-7 was measured for cell viability after treatment with siMCL-1+siBCL-xL, siMCL-1+siBCL-2, siBCL-xL+siBCL-2, and siMCL-1+siBCL-xL+siBCL-2 (FIG. 49).
Finally, experiments under all the conditions (individual and simultaneous regulation) were conducted simultaneously so as to compare effects thereof. […]

cleaved PARP = assay: Western blot of apoptotic marker cleaved PARP; assay type: cell-based; conditions: blood cancer cell line HL-60
Experimental: miRNA triggers were transfected into cells in the same manner as in Reference Example 4. After 72 hours, the cells were collected using a cell scraper and lysed with a RIPA buffer (NaCl 150 mM, EDTA 5 mM, Tris 50 mM, NP-40 1.0%, sodium deoxycholate 0.5%, SDS 0.1%). The cell lysate was sonicated 15 times, each for 20 sec, with a halt for 30 sec every sonication. Following centrifugation at 5,000 g for 5 min, the supernatant was taken and used to extract proteins therefrom. A total of 30-40 μg of protein sample was separated in 10-15% SDS-PAGE gel and transferred onto a PVDF membrane through a semi-dry blotting system. The membrane was blocked for 1 hour in 5% skimmed milk and incubated for 2 hours with a 1,000-fold dilution of a primary antibody in, 1% skimmed milk. […] The membrane incubated with the secondary antibody was washed three times with 1×PBST for 10 min each wash, and then reacted with Clarity Western ECL Substrate (#1705061, Bio-Rad), after which images were obtained and analyzed using ChemiDoc (Bio-rad, Hercules, USA). […]
The cells transfected with the selected miRNA triggers were measured for protein expression levels of the target Bcl-xL and the apoptotic marker cleaved PARP through western blotting, and the results are depicted in FIG. 32b.

siBcl-2: siRNA targeting bcl-2; SEQ ID NO 62 (AUCAAUCUUCAGCACUCUC; listed as RNA, chemistry not given here)
apoptosis (cell viability) [1]: apoptosis was detected
expression of the apoptotic marker cleaved PARP (cleaved PARP): upregulated
